# Entries after “also recorded” stand apart in the source; their conditions may differ.
# Tested on: patients with advanced, refractory solid tumors or lymphomas
# Test: Phase 1 trial of LMP776 (NCT01051635): safety, MTD, adverse events (CTCAE v4.0)
# Assay type: in vivo
# From the text: The primary objectives of each study included establishing safety, tolerability, MTD, and recommended phase 2 dose (RP2D) of LMP776 and LMP744 as single agents. The LMP744 study included evaluation of tumor pharmacodynamics as an exploratory objective. Both trials were opened at the National Cancer Institute’s (NCI) Developmental Therapeutics Clinic, and the LMP744 trial was also opened at the University of Pittsburgh Hillman Cancer Center. Both trials used an accelerated dose escalation designs (Simon design 4 for LMP776, Simon design 3 for LMP744) to determine the MTD [30]. Dose levels are listed in Supplementary Table 1. Once the MTD was determined, additional patients were enrolled at that DL in an expansion cohort to evaluate pharmacodynamic changes as described below. LMP776 and LMP744 were administered intravenously through a central line via a 1-h infusion on days 1–5 (QDx5) in 28-day cycles. Both agents were supplied by the NCI Division of Cancer Treatment and Diagnosis (DCTD). The studies were approved by the NIH Institutional Review Board and conducted in accordance with the Declaration of Helsinki.
# Patients were enrolled in either NCT01051635 evaluating LMP776 or NCT03030417 evaluating LMP744; these trials were conducted sequentially. Both trials required that patients be ≥ 18 years of age with solid tumors or lymphomas refractory to other treatments. Patients were required to have adequate performance status (Eastern Cooperative Oncology Group [ECOG] performance status ≤ 2), bone marrow function, and organ function as described in the Supplementary Methods. Patients in expansion phases at the MTD were required to have disease amenable to biopsy collection and be willing to undergo research biopsies. All patients provided written informed consent.
# Tumor responses were evaluated by serial CT scans according to RECIST v1.1 criteria. CT scans were performed every other cycle during the first year, then every 3 cycles after the first year. […] Criteria for all versions can be found at https://ctep.cancer.gov/protocolDevelopment/electronic_applications/ctc.htm. Any patient who received a dose of either agent was considered eligible for toxicity evaluation.
# [1] = all DLs, highest grade per patient
# [2] = grade 2, DL1-DL2 (n = 8; suppl. DL2, n=7)
structure (smiles),measurement,setting,value
COc1cc2c3c(n(CCCn4ccnc4)c(=O)c2cc1OC)-c1cc2c(cc1C3=O)OCO2 [LMP776],Grade 3 non-hematologic toxicities,"DL8 (16 mg/m^2/day), one patient each","hypokalemia, hyponatremia, and hypophosphatemia"
same,Maximum tolerated dose (MTD),"IV QDx5, 28-day cycles (DL7)",12 mg/m^2/day
same,"Anemia, grade ≥ 2, prevalence",across all DLs,50%
same,"Lymphopenia, grade ≥ 2, prevalence",across all DLs,38%
same,"Thrombocytopenia, grade ≥ 2, prevalence",across all DLs,18%
same,"Alkaline phosphatase increased, grade ≥ 2, Total (%)",all DLs,1 (3)
same,"Aspartate aminotransferase increased, grade ≥ 2, Total (%)",all DLs,2 (6)
same,"Dehydration, grade ≥ 2, Total (%)",all DLs,2 (6)
same,"Diarrhea, grade ≥ 2, Total (%)",all DLs,1 (3)
same,"Dysgeusia, grade ≥ 2, Total (%)",all DLs,2 (6)
same,"Fatigue, grade ≥ 2, Total (%)",all DLs,3 (9)
same,"Hypercalcemia, grade ≥ 2, Total (%)",all DLs,1 (3)
same,"Hypoalbuminemia, grade ≥ 2, Total (%)",all DLs,3 (9)
same,"Hypoglycemia, grade ≥ 2, Total (%)",all DLs,1 (3)
same,"Hypokalemia, grade ≥ 2, Total (%)",all DLs,1 (3)
same,"Hypomagnesemia, grade ≥ 2, Total (%)",all DLs,1 (3)
same,"Hyponatremia, grade ≥ 2, Total (%)",all DLs,2 (6)
same,"Hypothyroidism, grade ≥ 2, Total (%)",all DLs,1 (3)
same,"Mucositis - oral, grade ≥ 2, Total (%)",all DLs,1 (3)
same,"Nausea, grade ≥ 2, Total (%)",all DLs,2 (6)
same,"Vomiting, grade ≥ 2, Total (%)",all DLs,1 (3)
same,"White blood cell decreased, grade ≥ 2, Total (%)",all DLs,3 (9)
same,"Anemia, grade ≥ 2, Total (%)",[1],17 (50)
same,"Hypophosphatemia, grade ≥ 2, Total (%)",[1],4 (12)
same,"Lymphopenia (Lymphocyte count decreased), grade ≥ 2, Total (%)",[1],13 (38)
same,"Neutropenia, grade ≥ 2, Total (%)",[1],5 (15)
same,"Thrombocytopenia (Platelet count decreased), grade ≥ 2, Total (%)",[1],6 (18)
same,Patients requiring a dose reduction,enrolled at DL8,One
same,"Anemia, patients",[2],5
same,"Hypophosphatemia, patients",[2],1
same,"Lymphopenia (Lymphocyte count decreased), patients",[2],2
same,"Hypoalbuminemia, patients","grade 2, DL2",1
same,"Lymphopenia (Lymphocyte count decreased), patients","grade 2, DL3-DL4",1
same,"Anemia, patients","grade 2, DL3-DL4 (n = 6)",2
same,"Dehydration, patients","grade 2, DL5-DL6",1
same,"Diarrhea, patients","grade 2, DL5-DL6",1
same,"Fatigue, patients","grade 2, DL5-DL6",1
same,"Neutropenia, patients","grade 2, DL5-DL6",1
same,"Anemia, patients","grade 2, DL5-DL6 (n = 6)",3
same,"Aspartate aminotransferase increased, patients","grade 2, DL7",1
same,"Hypophosphatemia, patients","grade 2, DL7",1
same,"Anemia, patients","grade 2, DL7 (n = 7)",1
same,"Aspartate aminotransferase increased, patients","grade 2, DL8",1
same,"Dehydration, patients","grade 2, DL8",1
same,"Dysgeusia, patients","grade 2, DL8",2
same,"Fatigue, patients","grade 2, DL8",2
same,"Hypoalbuminemia, patients","grade 2, DL8",2
same,"Hypomagnesemia, patients","grade 2, DL8",1
same,"Hypophosphatemia, patients","grade 2, DL8",1
same,"Hypothyroidism, patients","grade 2, DL8",1
same,"Nausea, patients","grade 2, DL8",2
same,"Neutropenia, patients","grade 2, DL8",1
same,"Thrombocytopenia (Platelet count decreased), patients","grade 2, DL8",1
same,"Vomiting, patients","grade 2, DL8",1
same,"White blood cell decreased, patients","grade 2, DL8",1
same,"Anemia, patients","grade 2, all DLs (n=34)",11
same,"Aspartate aminotransferase increased, patients","grade 2, all DLs (n=34)",2
same,"Dehydration, patients","grade 2, all DLs (n=34)",2
same,"Diarrhea, patients","grade 2, all DLs (n=34)",1
same,"Dysgeusia, patients","grade 2, all DLs (n=34)",2
same,"Fatigue, patients","grade 2, all DLs (n=34)",3
same,"Hypercalcemia, patients","grade 2, all DLs (n=34)",1
same,"Hypoalbuminemia, patients","grade 2, all DLs (n=34)",3
same,"Hypomagnesemia, patients","grade 2, all DLs (n=34)",1
same,"Hyponatremia, patients","grade 2, all DLs (n=34)",2
same,"Hypophosphatemia, patients","grade 2, all DLs (n=34)",3
same,"Hypothyroidism, patients","grade 2, all DLs (n=34)",1
same,"Lymphocyte count decreased, patients","grade 2, all DLs (n=34)",3
same,"Nausea, patients","grade 2, all DLs (n=34)",2
same,"Neutropenia, patients","grade 2, all DLs (n=34)",2
same,"Platelet count decreased, patients","grade 2, all DLs (n=34)",1
same,"Vomiting, patients","grade 2, all DLs (n=34)",1
same,"White blood cell count decreased, patients","grade 2, all DLs (n=34)",1
same,"Hypoglycemia, patients","grade 3, DL2",1
same,"Lymphopenia (Lymphocyte count decreased), patients","grade 3, DL3-DL4",2
same,"Anemia, patients","grade 3, DL3-DL4 (n = 6)",1
same,"Lymphopenia (Lymphocyte count decreased), patients","grade 3, DL5-DL6",1
same,"Alkaline phosphatase increased, patients","grade 3, DL7",1
same,"Hyponatremia, patients","grade 3, DL7",1
same,"Lymphopenia (Lymphocyte count decreased), patients","grade 3, DL7",2
same,"Mucositis - oral, patients","grade 3, DL7",1
same,"Thrombocytopenia (Platelet count decreased), patients","grade 3, DL7",1
same,"Anemia, patients","grade 3, DL7 (n = 7)",1
same,"Hypokalemia, patients","grade 3, DL8",1
same,"Hyponatremia, patients","grade 3, DL8",1
same,"Hypophosphatemia, patients","grade 3, DL8",1
same,"Lymphopenia (Lymphocyte count decreased), patients","grade 3, DL8",3
same,"Neutropenia, patients","grade 3, DL8",2
same,"Thrombocytopenia (Platelet count decreased), patients","grade 3, DL8",3
same,"White blood cell decreased, patients","grade 3, DL8",1
same,"Anemia, patients","grade 3, DL8 (n = 7)",4
same,"Alkaline phosphatase increased, patients","grade 3, all DLs (n=34)",1
same,"Anemia, patients","grade 3, all DLs (n=34)",6
same,"Hypoglycemia, patients","grade 3, all DLs (n=34)",1
same,"Hypokalemia, patients","grade 3, all DLs (n=34)",1
same,"Lymphocyte count decreased, patients","grade 3, all DLs (n=34)",8
same,"Mucositis - oral, patients","grade 3, all DLs (n=34)",1
same,"Neutropenia, patients","grade 3, all DLs (n=34)",2
same,"Platelet count decreased, patients","grade 3, all DLs (n=34)",3
same,"White blood cell count decreased, patients","grade 3, all DLs (n=34)",1
same,"Hypercalcemia, patients","grade 4, DL2",1
same,"Lymphopenia (Lymphocyte count decreased), patients","grade 4, DL8",2
same,"Neutropenia, patients","grade 4, DL8",1
same,"Thrombocytopenia (Platelet count decreased), patients","grade 4, DL8",1
same,"White blood cell decreased, patients","grade 4, DL8",1
same,"Lymphocyte count decreased, patients","grade 4, all DLs (n=34)",2
same,"Neutropenia, patients","grade 4, all DLs (n=34)",1
same,"Platelet count decreased, patients","grade 4, all DLs (n=34)",1
same,"White blood cell count decreased, patients","grade 4, all DLs (n=34)",1
same,Dose-limiting toxicities (DLTs),in vivo,"hypercalcemia, anemia, and hyponatremia; also recorded: Hypercalcemia and hyponatremia were dose-limiting"
same,"Nausea, prevalence",in vivo,6%

# — PMC12122562, “Phase 1 studies of the indenoisoquinolines LMP776 and LMP744 in patients with solid tumors and lymphomas” (Cancer Chemotherapy and Pharmacology, 2025)
